{"source": "ChEMBL document CHEMBL3880411", "about": "“Multikinase inhibitors for use in the treatment of cancer” (2009)", "key": {"[1]": {"biological_target": "BDNF/NT-3 growth factors receptor (Homo sapiens) (UniProt Q16620)", "sequence (Q16620 32-822 limits assumed)": "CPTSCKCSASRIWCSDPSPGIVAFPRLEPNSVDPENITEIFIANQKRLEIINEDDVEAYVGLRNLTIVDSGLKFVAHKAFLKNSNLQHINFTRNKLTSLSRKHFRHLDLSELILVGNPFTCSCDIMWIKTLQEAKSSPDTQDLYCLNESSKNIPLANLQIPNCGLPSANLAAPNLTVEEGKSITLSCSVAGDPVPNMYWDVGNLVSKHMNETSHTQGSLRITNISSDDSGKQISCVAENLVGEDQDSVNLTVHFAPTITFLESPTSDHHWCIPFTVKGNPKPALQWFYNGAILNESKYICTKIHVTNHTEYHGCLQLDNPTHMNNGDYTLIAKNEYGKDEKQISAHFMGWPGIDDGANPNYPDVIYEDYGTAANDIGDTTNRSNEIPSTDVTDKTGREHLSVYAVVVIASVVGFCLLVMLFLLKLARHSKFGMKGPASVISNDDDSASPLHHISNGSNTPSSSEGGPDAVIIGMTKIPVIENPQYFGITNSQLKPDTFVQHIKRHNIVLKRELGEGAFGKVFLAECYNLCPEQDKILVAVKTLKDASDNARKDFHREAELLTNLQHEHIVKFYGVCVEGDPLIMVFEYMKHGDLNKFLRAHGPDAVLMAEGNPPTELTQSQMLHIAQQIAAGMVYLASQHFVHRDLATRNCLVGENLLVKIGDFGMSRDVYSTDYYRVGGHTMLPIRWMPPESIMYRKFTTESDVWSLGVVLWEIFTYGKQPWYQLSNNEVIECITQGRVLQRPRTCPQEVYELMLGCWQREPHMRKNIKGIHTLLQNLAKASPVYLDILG", "experiment": "Inhibition of human TrkB assessed as remaining activity at 1 uM after 40 mins in presence of [gamma33P-ATP] by scintillation counting"}, "[2]": {"experiment": "Cytotoxicity against human SK-MEL-24 cells expressing B-RAF V600E mutant assessed as reduction in cell viability after 96 hrs by CellTiter-Glo luminescence assay or methylene blue assay", "type": "functional, cell-based", "conditions": "SK-MEL-24, 96 h"}, "[3]": {"experiment": "Cytotoxicity against human DLD1 cells expressing K-ras G13D mutant assessed as reduction in cell viability after 96 hrs by CellTiter-Glo luminescence assay or methylene blue assay", "type": "functional, cell-based", "conditions": "DLD-1, 96 h"}, "[4]": {"experiment": "Cytotoxicity against human PANC1 cells expressing K-ras G12D mutant assessed as reduction in cell viability after 96 hrs by CellTiter-Glo luminescence assay or methylene blue assay", "type": "functional, cell-based", "conditions": "PANC-1, 96 h"}, "[5]": {"experiment": "Cytotoxicity against human HCT116 cells expressing K-ras G13D mutant assessed as reduction in cell viability after 96 hrs by CellTiter-Glo luminescence assay or methylene blue assay", "type": "functional, cell-based", "conditions": "HCT-116, 96 h"}, "[6]": {"experiment": "Antiproliferative activity against human RL cells after 96 hrs by MTT assay", "type": "functional, cell-based"}, "[7]": {"biological_target": "Tyrosine-protein kinase Lyn (Homo sapiens) (UniProt P07948)", "sequence (P07948 2-512 limits assumed)": "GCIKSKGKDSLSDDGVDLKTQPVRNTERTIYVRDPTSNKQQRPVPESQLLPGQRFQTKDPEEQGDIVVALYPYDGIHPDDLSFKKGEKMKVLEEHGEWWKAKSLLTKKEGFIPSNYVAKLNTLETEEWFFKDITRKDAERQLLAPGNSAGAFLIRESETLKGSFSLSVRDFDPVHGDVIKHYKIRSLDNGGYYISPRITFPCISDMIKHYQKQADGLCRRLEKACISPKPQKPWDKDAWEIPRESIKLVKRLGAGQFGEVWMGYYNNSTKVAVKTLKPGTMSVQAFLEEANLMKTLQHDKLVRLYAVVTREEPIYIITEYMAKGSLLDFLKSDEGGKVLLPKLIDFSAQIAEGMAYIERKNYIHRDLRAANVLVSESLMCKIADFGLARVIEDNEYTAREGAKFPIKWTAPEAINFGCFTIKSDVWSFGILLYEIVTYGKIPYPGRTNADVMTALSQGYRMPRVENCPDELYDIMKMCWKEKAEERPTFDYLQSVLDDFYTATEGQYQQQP", "experiment": "Inhibition of human Lyn assessed as remaining activity at 1 uM after 40 mins in presence of [gamma33P-ATP] by scintillation counting"}, "[8]": {"experiment": "Antiproliferative activity against human RPMI8226 cells after 96 hrs by MTT assay", "type": "functional, cell-based", "conditions": "RPMI-8226, 96 h"}, "[9]": {"experiment": "Cytotoxicity against human MES-SA cells assessed as reduction in cell viability after 96 hrs by CellTiter-Glo luminescence assay or methylene blue assay", "type": "functional, cell-based"}, "LOX": {"test_system": "LOX", "experiment": "Antitumor activity against human LOX cells expressing B-RAF V600E mutant xenografted in athymic mouse assessed as tumor regression at 10 to 40 mg/kg, iv administered for two weekly rounds of five injections daily with two-day rest period between the rounds measured twice weekly from first day of treatment", "type": "functional, organism-based"}}, "note": "pIC50: −log10 of the molar value. Active and inactive are the calls of the source. The calls are words filed in the database; no cut-off is given here."}
{"smiles": "CCNc1cc(O)c2c(c1)/C=C/C[C@H](O)[C@H](O)C(=O)/C=C\\[C@@H](C)[C@H](C)OC2=O", "note": "[E-6201]", "values": [{"measurement": "Activity", "setting": "[1]", "value": 4, "unit": "%"}, {"measurement": "pIC50", "setting": "[2]", "value": 7.18}, {"measurement": "pIC50", "setting": "[3]", "value": 6.19}, {"measurement": "pIC50", "setting": "[4]", "value": "< 5.00"}, {"measurement": "pIC50", "setting": "[5]", "value": 6.37}, {"measurement": "pIC50", "setting": "[6]", "value": 5.78}, {"measurement": "Activity", "setting": "[7]", "value": 2, "unit": "%"}, {"measurement": "pIC50", "setting": "[8]", "value": "< 5.15"}, {"measurement": "pIC50", "setting": "[9]", "value": 5.13}, {"measurement": "Activity", "setting": "LOX", "value": "Active"}]}
